Results reported in patent US20060167081A1, “Ep4 receptor agonists” (priority 2002, published 2006).

Columns and labels:
intracellular cAMP = assay: Intracellular cAMP in osteoblastic cell lines; format: cell-based, rat
Method: (§1) Cell Cultures—RP-1 periosteal cells are spontaneously immortalized from primary cultures of periosteal cells from tibae of 4-week old Sprague-Dawley rats and are cultured in DMEM (BRL, Gaithersburg, Md.) with 10% fetal bovine serum (JRP Biosciences, Lenexa, KS). […] RCT-1 and RCT-3 are clonal cell lines immortalized by SV40 large T antigen from cells released from fetal rat calvair by a cmbination collagenase/hyaluronidase digestion. RCT-1 cells, derived from cells released during the first 10 minutes of digestion (fraction I), are cultured in RPMI 1640 medium (BRL) with 10% fetal bovine serum and 0.4 mg/ml G418 (BRL). These cells differentiate and express osteoblastic features upon retinoic acid treatment. RCT-3 cells, immortalized from osteoblast-enriched fraction m cells, are cultured in F-12 medium (BRL) with 5% Fetal bovine serum and 0.4 mg/ml G418. TRAB-11 cells are also immortalized by SV40 large T antigen from adult rat tibia and are cultured in RPMI 1640 medium with 10% FBS and 0.4 mg/ml G418. ROS 17/12.8 rat osteosarcoma cells are cultured in F-12 containing 5% PBS. Osteoblast-enriched (fraction III) primary fetal rat calvaria cells are obtained by collagenase/hyaluronidase digestion of calvariae of 19 day-old rat fetuses. See Rodan et al., Growth stimulation of rat calvaria osteoblastic cells by acidic FGF, Endocrinology, 121, 1919-1923 (1987), which is incorporated by reference herein in its entirety. Cells are released during 30-50 minutes digestion (fraction III) and are cultured in F-12 medium containing 5% FBS. P815 (mouse mastocytoma) cells, cultured in Eagles MEM with 10% FBS, and NRK (normal rat kidney fibroblasts) cells, cultured in DMEM with 10% […], are used as positive and negative controls for the expression of EP4, respectively. See Abramovitz et al., Human prostanoid receptors: cloning and characterization. In: Samulesson B. et al. ed) Advances in prostaglandin, Thrombosznes and leukotriene research, vol. […]

EP4 mRNA [1] = assay: EP4 mRNA levels in bone derived cell lines (Northern blot); format: cell-based, rat
Method: as §1

EP2 mRNA [2] = assay: EP2 mRNA in RP-1 periosteal cells (Northern blot); format: cell-based, rat; details: RP-1 cells
Method: Cell Cultures—RP-1 periosteal cells are spontaneously immortalized from primary cultures of periosteal cells from tibae of 4-week old Sprague-Dawley rats and are cultured in DMEM (BRL, Gaithersburg, Md.) with 10% fetal bovine serum (JRP Biosciences, Lenexa, KS). […] RCT-1 and RCT-3 are clonal cell lines immortalized by SV40 large T antigen from cells released from fetal rat calvair by a cmbination collagenase/hyaluronidase digestion. RCT-1 cells, derived from cells released during the first 10 minutes of digestion (fraction I), are cultured in RPMI 1640 medium (BRL) with 10% fetal bovine serum and 0.4 mg/ml G418 (BRL). These cells differentiate and express osteoblastic features upon retinoic acid treatment. RCT-3 cells, immortalized from osteoblast-enriched fraction m cells, are cultured in F-12 medium (BRL) with 5% Fetal bovine serum and 0.4 mg/ml G418. TRAB-11 cells are also immortalized by SV40 large T antigen from adult rat tibia and are cultured in RPMI 1640 medium with 10% FBS and 0.4 mg/ml G418. ROS 17/12.8 rat osteosarcoma cells are cultured in F-12 containing 5% PBS. Osteoblast-enriched (fraction III) primary fetal rat calvaria cells are obtained by collagenase/hyaluronidase digestion of calvariae of 19 day-old rat fetuses. […]

EP4 mRNA [3] = assay: EP4 mRNA levels in vivo in bone tissue (Northern blot); design: species or system rat; details: tibial diaphysis, five-week-old male rats, 3-6 mg/Kg
From the text: Animal Procedures—For mRNA localization experiments, 5-week old Sprague-Dawley rats (Charles River) are euthanized by CO2, their tibiae and calvariae are excised, cleaned of soft tissues and frozen immediately in liquid nitrogen. […] Animals are euthanized at several time points post-injection and their tibiae and calvariae, as well as samples from lung and kidney tissues are frozen in liquid nitrogen.
Northern Blot Analysis—Total RNA is extracted from the tibial metaphysis or diaphysis and calvaria using a guanidinium isothiocyanate-phenol-chloroform method after pulverizing frozen bone samples by a tissue homogenizer. See P. Chomczynski et al., Single-step method of RNA isolation by acid guanidium thiocyanate-phenol-chloroform extraction., Analyt Biochem, 162, 156-159 (1987), which is incorporated by reference herein in its entirety. RNA samples ([…]) are separated on 0.9% agarose/formaldehyde gels and transferred onto nylon membranes (Boehringer Mannheim, Germany). Membranes are prehybridized in Hybrisol I (Oncor, Gaithersburg, Md.) and 0.5 mg/ml sonicated salmon sperm DNA (Boehringer) at 42° C. for 3 hours and are hybridized at 420C with rat EP2 and mouse EP4 cDNA probes labeled with [^32P]-dCTP (Amersham, Buckinghamshire, UK) by random priming using the rediprime kit (Amersham). […]

EP2 mRNA [4] = assay: EP2 mRNA in vivo in bone tissue (Northern blot); design: species or system rat
EP4 mRNA [5] = assay: Localization of EP4 mRNA expression in bone tissue (in situ hybridization); format: in vivo, rat; details: single anabolic dose, rats
Method: Animal Procedures—For mRNA localization experiments, 5-week old Sprague-Dawley rats (Charles River) are euthanized by CO2, their tibiae and calvariae are excised, cleaned of soft tissues and frozen immediately in liquid nitrogen. For EP4 regulation experiments, 6-week old rats are given a single injection of either vehicle (7% ethanol in sterile water) or an anabolic dose of PGE2 (Cayman Chemical, Ann Arbor, Mich.), 3-6 mg/kg in the same vehicle) intraperitoneally. Animals are euthanized at several time points post-injection and their tibiae and calvariae, as well as samples from lung and kidney tissues are frozen in liquid nitrogen.
In-Situ Hybridization—Frozen tibiae are sectioned coronally at […] thickness and sections are mounted on charged slides (Probe On Plus, Fisher Scientific, Springfield, N.J.) and are kept at −70° C. until hybridization. cRNA probes are labeled with ^35S-UTPgS ([CN, Costa Mesa, CA) using a Riboprobe II kit (Promega Madison, Wis.). Hybridization is performed overnight at 50° C. […]
Localization of EP4 mRNA expression in bone tissue—In situ hybridization is used in order to localize cells expressing EP4 in bone. In control experiment (vehicle-injected) rats, low expression of EP4 is detected in bone marrow cells. […]

## CCCCC[C@H](O)/C=C/[C@H]1[C@H](O)CC(=O)[C@@H]1C/C=C\CCCC(=O)O [PGE2]
Intracellular cAMP; RCT-3 cells
  effect on intracellular cAMP: markedly induced
Intracellular cAMP; ROS 17/2.8 cells
  effect on intracellular cAMP: no effect
Intracellular cAMP; TRAB-11 cells
  effect on intracellular cAMP: markedly induced
EP4 mRNA [1]; RCT-3 cells
  EP4 mRNA levels: no effect
EP4 mRNA [1]; RP-1 periosteal cells, 10^-6 M
  EP4 mRNA levels: rapidly increases
  time of peak of EP4 mRNA levels after treatment: 2 h
EP2 mRNA [2]
  induction of EP2 mRNA: does not induce
EP4 mRNA [3]
  time of peak of EP4 mRNA levels after injection: 2 h
EP4 mRNA [3]; systemic
  EP4 mRNA levels: rapidly increased
EP2 mRNA [4]
  induction of EP2 mRNA: does not induce
EP4 mRNA [5]
  expression of EP4 in bone marrow cells: increased
